{"source": "patent US7303740B2", "about": "“Methods for the diagnosis and treatment of breast cancer” (Albert Einstein College of Medicine of Yeshiva University, priority 2000, dated 2007)", "molecules": {"B1": {"name": "prolactin: a glycoprotein released from the anterior pituitary (protein, UniProt P01236 29-227, looked up)", "Prolactin": "LPICPGGAARCQVTLRDLFDRAVVLSHYIHNLSSEMFSEFDKRYTHGRGFITKAINSCHTSSLATPEDKEQAQQMNQKDFLSLIVSILRSWNEPLYHLVTEVRGMQEAPEAILSKAVEIEEQTKRLLEGMELIVSQVHPETKENEIYPVWSGLPSLQMADEESRLSAYYNLLHCLRRDSHKIDNYLKLLKCRIIHNNNC"}}, "key": {"mgNIS [1]": {"tested_on": "mgNIS", "test": "Immunoblot analysis of mgNIS in MG from ovariectomized nubile mice treated with hormones", "type": "in vivo", "settings": "for mgNIS expression in mammary tissue (immunoblot): three consecutive days", "procedure": "FIG. 4. Immunoblot analysis of MG from ovariectomized nubile mice treated with various hormones. Membrane fractions isolated from MG of nubile mice were either sham treated with PBS (lane 1) or treated for three consecutive days with: progesterone (1 I.U.) (lane 2); 17-β-estradiol (1 μg) (lane 3); 17-β-estradiol and progesterone (1 I.U.) (lane 4); oxytocin (1 I.U.) (lane 5); oxytocin and 17-β-estradiol (lane 6); prolactin (10 I.U.) (lane 7); oxytocin, prolactin, and 17-β-estradiol (lane 8); and progesterone together with oxytocin, prolactin, and 17-β-estradiol (lane 9). Isolated membrane fractions were electrophoresed and electrotransferred onto nitrocellulose, followed by immunoblot analysis with anti-NIS Ab.\nOxytocin (α-hypophamine), prolactin, progesterone (4-pregnene-3,20-dione), and 17-β-estradiol (1,3,5[10]-estratriene-3,17-β-diol) were purchased from Sigma, St. Louis, Mo. Either ovariectomized or surgically unmodified 8- to 10-week-old CD1 (ICR) IBR mice (Charles River Laboratories, Wilmington, Mass.) were treated once a day with subcutaneous injections of 1 I.U. of oxytocin, 10 I.U. of prolactin, 1 μg 17-β-estradiol, or 1 I.U. of progesterone (intraperitoneally) for three consecutive days, either individually or in the indicated combination. A final injection was done on the fourth day; two hours later, mammary glands were removed for analysis. Oxytocin and prolactin were dissolved in sterile distilled water, 17-β-estradiol was dissolved in 90% alcohol, and progesterone was dissolved in sesame oil (Sigma, St. Louis, Mo.). Except for progesterone, indicated doses of hormones were injected after being taken in 200 μl sterile PBS solution. Progesterone (final concentration 10 mg/ml) was injected into 100 μl of sesame oil. Control animals which were sham treated with sesame oil were systematically included in experiments when progesterone was administered. At least three identically-treated animals were analyzed in each case.\nSprague-Dawley female rats (over 8 weeks old) at different physiological stages, and hormonally-treated CD1 (ICR) BR female mice, were sacrificed in a CO2 chamber before excision of thoracic, abdominal, and inguinal MG. Organs, which were removed from mice or rats were blended with a polytron homogenizer (Brinkmann Instruments, Westbury, N.Y.) for 1 min, and homogenized with a stirrer-type glass-teflon homogenizer (Caframo-Wiarton, Ontario, Canada) (Levy et al., 1997). Membrane fractions were prepared in the presence of protease inhibitors, as described above (Kaminsky et al., 1994). SDS-PAGE electrophoresis and electroblotting to nitrocellulose were performed as described in Levy et al. (1997). All samples were diluted 1:2 with loading buffer (Harlow and Lane, 1988) and heated at 37° C. for 30 min prior to electrophoresis. […]"}, "mgNIS [2]": {"tested_on": "mgNIS", "test": "mgNIS expression (immunoblot) and 125I- transport in MG of hormonally treated intact nubile mice", "type": "in vivo", "settings": "intact nubile animals", "procedure": "(§1) FIG. 3. In vivo effect of oxytocin on functional expression of mgNIS in nubile mice. (A) Radioiodide transport in MG of oxytocin-treated nubile mice. Seven- to eight-week-old female mice were treated subcutaneously with phosphate buffered saline solution (PBS), 10 I.U. of prolactin (PRL), 1 I.U. of oxytocin (OXY), or prolactin and oxytocin (PRL+OXY) for three days. Then, 1 μCi of ^125I^− was injected intraperitoneally. […] (B) Immunoblot analysis of MG from hormonally-treated mice. […] Isolated membrane fractions were electrophoresed, electrotransferred onto nitrocellulose, and analyzed by immunoblots using anti-NIS Ab. […] Perchlorate-inhibited accumulation of ^99mTcO4^− was detected in stomach and MG of OXY-treated animals. (D) Quantification of ^99mTcO4^− accumulation in various organs from OXY- or PBS-treated mice. Tracer accumulation was monitored using image analysis software (ImageQuant, Macintosh). […] Counts were divided by the weight of the organs (cpm/mg tissue), and standardized by dividing them by cpm detected in the blood (cpm/mg blood) of each animal. ^99mTcO4^− accumulation in the organs from: PBS-treated animals (open bars); OXY-treated animals (dotted bars); and OXY-treated animals after ^99mTcO4^−+perchlorate injection (dark bars). […]"}, "mgNIS [3]": {"target": "T1, mgNIS (Mus musculus, UniProt Q99PN0)", "T1 sequence (Q99PN0 1-618)": "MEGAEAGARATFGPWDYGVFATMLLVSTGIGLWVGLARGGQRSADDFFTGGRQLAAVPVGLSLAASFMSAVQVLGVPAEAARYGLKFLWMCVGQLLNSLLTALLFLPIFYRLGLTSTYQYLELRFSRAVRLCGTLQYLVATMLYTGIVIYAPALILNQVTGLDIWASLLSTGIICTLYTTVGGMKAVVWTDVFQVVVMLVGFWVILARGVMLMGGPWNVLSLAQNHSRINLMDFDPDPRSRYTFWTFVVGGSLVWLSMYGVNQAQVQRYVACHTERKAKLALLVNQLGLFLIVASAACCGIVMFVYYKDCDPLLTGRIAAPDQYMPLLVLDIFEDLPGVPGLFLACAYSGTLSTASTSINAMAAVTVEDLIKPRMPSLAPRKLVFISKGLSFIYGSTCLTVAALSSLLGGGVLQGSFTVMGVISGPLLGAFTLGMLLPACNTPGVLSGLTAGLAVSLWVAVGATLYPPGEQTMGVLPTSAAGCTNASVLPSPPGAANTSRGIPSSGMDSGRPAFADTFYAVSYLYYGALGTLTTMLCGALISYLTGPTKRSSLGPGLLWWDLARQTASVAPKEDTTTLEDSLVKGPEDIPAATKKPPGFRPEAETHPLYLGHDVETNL", "test": "Ex vivo scintigraphic imaging of 99mTcO4- accumulation in organs of oxytocin-treated nubile mice", "design": "Membrane fractions isolated from MG of nubile female mice; from tissue; host or cells: CD1 (ICR) mice (intact, ovariectomized, gestating) and MMTV-ras / MMTV-neu transgenic mice: mammary gland, mammary adenocarcinoma, stomach", "settings": "organs removed 30 min after tracer", "procedure": "as §1"}}, "data": [{"molecule": "C[C@]12CC[C@@H]3c4ccc(O)cc4CC[C@H]3[C@@H]1CC[C@@H]2O", "note": "[17-β-estradiol, 1,3,5[10]-estratriene-3,17-β-diol]", "values": [{"measurement": "mgNIS expression in mammary tissue (immunoblot)", "setting": "mgNIS [1]", "value": "clearly discernible increase"}]}, {"molecule": "CC[C@H](C)[C@@H]1NC(=O)[C@H](Cc2ccc(O)cc2)NC(=O)[C@@H](N)CSSC[C@@H](C(=O)N2CCC[C@H]2C(=O)N[C@@H](CC(C)C)C(=O)NCC(N)=O)NC(=O)[C@H](CC(N)=O)NC(=O)[C@H](CCC(N)=O)NC1=O", "note": "[oxytocin, α-hypophamine]", "values": [{"measurement": "mgNIS expression in MG (immunoblot), leading to 125I- transport", "setting": "mgNIS [2]; 1 I.U. s.c. for three days", "value": "induced mgNIS expression"}, {"measurement": "perchlorate-inhibited 99mTcO4- accumulation in MGs versus sham-treated mice", "setting": "mgNIS [3]", "value": "significantly higher"}, {"measurement": "mgNIS expression in mammary tissue (immunoblot)", "setting": "mgNIS [1]", "value": "did not cause an increase"}]}, {"molecule": "CC(=O)[C@H]1CC[C@H]2[C@@H]3CCC4=CC(=O)CC[C@]4(C)[C@H]3CC[C@]12C", "note": "[progesterone, 4-pregnene-3,20-dione]", "values": [{"measurement": "effect on 17-β-estradiol enhancement of mgNIS expression", "setting": "mgNIS [1]", "value": "did not interfere"}, {"measurement": "mgNIS expression when added to the 17-β-estradiol/oxytocin/prolactin combination", "setting": "mgNIS [1]", "value": "significantly decreased"}]}, {"molecule": "B1", "values": [{"measurement": "effect on upregulation of mgNIS by oxytocin", "setting": "mgNIS [2]; 10 I.U. prolactin with 1 I.U. oxytocin", "value": "antagonized"}]}]}
